In US20100240656A1, “COMPOUNDS AS HSP90 INHIBITORS” (ORYZON GENOMICS, S.A., priority 2007, published 2010):
pEC50, pIC50, pKd: −log10 of the molar value. Like-named read-outs stand apart in the source and are kept apart here.

Legend:
[1] = test system: Hsp90 client proteins (c-Raf-1, Cdk4, Her2) and co-chaperone Hsp70; conditions: literature (Banerji U. et al.); cited from earlier work
HCT-116 = assay: Cell growth inhibition by AlamarBlue method, HCT-116; format: cell-based; conditions: Homo sapiens; HCT-116, 72 hours; read-out: Cell growth inhibition values (EC50) obtained with AlamarBlue method
Description: (§1) The human colon cancer cell line HCT-116 and the human breast cell lines MCF-7 and SKBr3 were from the American Type Culture Collection (ATCC; CCL-247, HTB-22 and HTB-30, respectively).
(§2) The HCT-116 and SKBr3 cell lines were maintained in DMEM GlutaMAX (Invitrogen) supplemented with 10% fetal calf serum and the MCF-7 cell line was maintained in RPMI1640 GlutaMAX (Invitrogen) containing 1 mM sodium pyruvate and 10% fetal calf serum. Cells were grown in a humidified incubator at 37° C. in 5% CO2
(§3) Cells were plated in 96-well plates (Costar, 3596) at a density of 6000 cells/well in 50 μL medium 24 h before addition of the compounds. Compounds were then added in 8 concentrations, each in triplicate (dilution series of 1 to 3). To do so, a compound-dilution plate at 200× the screening concentrations was prepared in DMSO 100% (Sigma, 154938). Then, 1.7 μL of the 200× diluted compounds were transferred to a new plate and 170 μL of media were added and mixed with the pipette (plate at 2×). Columns 11 and 12 of this plate (controls) were filled with 1% DMSO in cell media (i.e. 1.7 μL DMSO and 170 μL cell media). Finally, 50 μL of this intermediate plate at 2× were transferred to the plate containing the seeded cells and slowly shaken manually. Cells were grown as described above. AlamarBlue viability assay (Biosource, Invitrogen, DAL1100) was performed 72 hours later following manufacturer's protocol. In brief, AlamarBlue diluted in media was added to cells to have a 5% solution (a 2× solution was prepared in media and 100 μL of this solution were transferred to each well, i.e. final volume of 200 μL). Cells were incubated at 37° C., 3 hours and at room temperature for an additional 30 min. Cells with no compound and, cells with no compound and lysed with triton X-100 (30 μL/well added 10 min before treatment with AlamarBlue) were used as controls (6 replicates of each). Fluorescence was monitored at 530 nm excitation and 590 nm emission wavelengths. Results were quantified using ELx800 Universal Microplate Reader (Bio-Tek Instruments, Inc.). EC50 were calculated as the dose of compound required to inhibit cell growth by 50%.

Hsp90α [2] = molecular target: T1, Hsp90α (Homo sapiens, UniProt P07900); assay: Human Hsp90α fluorescence polarization competition assay with Example 37 tracer; conditions: displacement of 50 nM example 37 tracer, 125 nM Hsp90α, 1 h 30 min, 20° C.; read-out: Relative binding affinity values (IC50) obtained from FP measurements
T1 construct: purchased Stressgen Bioreagents SPP-776
Source text: The aim of this study was to determine the binding ability of compounds of the invention to the N-terminal ATP binding site of Hsp90. For that purpose competition assays with fluorescently labeled Hsp90 binders were used (compounds of examples 37 and 41).
Compounds of examples 37 and 41 are structurally based on 8-(6-Iodo-benzo[1,3]dioxol-5-ylsulfanyl)-9-(3-isopropylamino-propyl)-9H-purin-6-ylamine, a known binder of the N-terminal ATP binding site of Hsp90 which has the ability of inhibiting the Hsp90 function (cf. Chiosis G. et al. “Identification of Potent Water Soluble Purine-Scaffold Inhibitors of the Heat Shock Protein 90”, J. Med. Chem., 2006, vol. 49, no. 1, p. 381). Compounds 37 and 41 keep the essential structural features of the known binder (which means that said compounds are able to bind to the ATP binding site) and incorporate a fluorescent probe which allows the detection of the binding by fluorescence polarization.
When the binders of examples 37 and 41 are used in the competition assay, in a first step said binders are allowed to interact with the N-terminal ATP binding site of Hsp90. Then the compounds of the invention are added and it is determined if they are able to bind to the N-terminal ATP binding site (which will imply that the binders of examples 37 and 41 have been replaced from the N-terminal ATP binding site). If after performing the assay, the binding between the tested compound of the invention and the Hsp90 is observed, this will be indicative that the compound of the invention has been bound to the ATP binding site of Hsp90 and, therefore, can inhibit the Hsp90.
(§4) Once compounds of examples 37 and 41 were synthesized as reported above, they were dissolved at 238 μM and 1 mM in DMSO respectively (Sigma-Aldrich, cat. No. 154938). Hsp90α was purchased from Stressgen Bioreagents (cat. No. SPP-776; Victoria, Canada). The assay buffer contained 100 mM Tris·HCl, pH 7.4, 20 mM KCl, 6 mM MgCl2. Before each use 5 μg/mL bovine serum albumin (BSA, Pierce, Rockford (Ill.), cat No. 23209), 0.25 mM TCEP (Sigma, cat No. 64706) and 0.01% NP40 (Nonidet P40 Substitute, Fluka, cat No. 74385) were freshly added (cf. Howes et al., “A fluorescence polarization assay for inhibitors of Hsp90”, Analytical Biochemistry, 2006, vol. 350, p. 202-213; Kim et al., “Development of a fluorescence polarization assay for the molecular chaperone Hsp90”, J. Biomol. Screen., 2004, vol. 9 (5)).
Fluorescence polarization measurements were performed on an Infinite F200 (Tecan, Austria). Measurements were taken in black 96-well microplates (Corning Costar No. 3650) in which both the excitation and the emission occurred from the top of the wells. In the Infinite F200, a xenon arc lamp provides excitation light that passes through a 485 nm (20-nm bandwidth) excitation filter and then a polarizer filter. A beam splitter filter directs the polarized excitation light into the well, and emitted fluorescence transmits back through the same beam-splitter filter, through a polarizer filter, and then through a 535 nm (25-nm bandwidth) emission filter for detection (Kim et al., supra). The read time per well was 20 μs, and the number of reads per well was 25.
Compounds were assayed over a three-fold dilution series in a 96-well plate format to determine IC50 values. The serial dilution was performed in a separate 96-well plate (Thermowell 96 well PCR plate, Non-Treated Polypropylene, Corning Costar No. 6551) at 50 times final assay concentration in DMSO. (Howes et al, supra). 2 μl of compound was transferred to a black 96-well plate (Corning Costar No. 3650) and 98 μL of reaction solution (100 mM Tris·HCl, pH 7.4, 20 mM KCl, 6 mM MgCl2, 5 μg/mL bovine serum albumin (BSA), 0.25 mM TCEP, 0.01% NP40, 50 nM the compound of example 37, 125 nM Hsp90α) was added per well. The plate was allowed to equilibrate for 1 h 30 min on a slow moving shaker at 20° C. in the dark. […]

MCF-7 = assay: Cell growth inhibition by AlamarBlue method, MCF-7; format: cell-based, human; conditions: MCF-7, 72 hours, read-out: Cell growth inhibition values (EC50) obtained with AlamarBlue method
Description: as §1, §2, §3

Hsp90α [3] = molecular target: T1, Hsp90α; assay: Fluorescence polarization binding isotherms of tracers with Hsp90α; conditions: fitted to a 1:1 binding model; read-out: dissociation constant (KD) tracer / Hsp90α
Description: as §4
Fluorescence polarization measurements were performed on an Infinite F200 (Tecan, Austria). […] A beam splitter filter directs the polarized excitation light into the well, and emitted fluorescence transmits back through the same beam-splitter filter, through a polarizer filter, and then through a 535 nm (25-nm bandwidth) emission filter for detection (Kim et al., supra). The read time per well was 20 μs, and the number of reads per well was 25. […]

SKBr3 = assay: Cell growth inhibition by AlamarBlue method, SKBr3; format: cell-based; conditions: Homo sapiens, SK-BR-3; SKBr3, 72 hours; read-out: Cell growth inhibition values (EC50) obtained with AlamarBlue method
Description: as §1, §2, §3

Compound	pEC50 (HCT-116)	pIC50 (Hsp90α [2])	also measured
C=CCNC1=C2C[C@@H](C)C[C@H](OC)[C@H](O)[C@@H](C)/C=C(\C)[C@H](OC(N)=O)[C@@H](OC)/C=C\C=C(/C)C(=O)NC(=CC1=O)C2=O [Example 17AAG, 17-Allylamino, 17-Demethoxygeldanamycin]			effect of Hsp90 inhibitor on client proteins and Hsp70 as described in the literature [1]: promotes degradation of its client proteins and overexpression of the co-chaperone Hsp70
CC(C)NCCCn1c(Sc2cc3c(cc2I)OCO3)nc(C(N)=O)c1N [Example 33, 5-amino-2-(6-iodo-benzo[1,3]dioxol-5-ylsulfanyl)-1-(3-isopropylamino-propyl)-1H-imidazole-4-carboxamide]	5.52	6.30	pEC50 (MCF-7; Homo sapiens, MCF7): 5.52
Cc1cc(C)n2c1C=C1C=CC(CCC(=O)NCCNC(=O)CCCCCn3c(Sc4cc5c(cc4I)OCO5)nc4c(N)ncnc43)=[N+]1[B-]2(F)F [Example 37, 6-[6-amino-8-(6-iodo-benzol[1,3]dioxol-5-ylsulfanyl)-purin-9-yl]-hexanoic acid 4,4-difluoro-5,7-dimethyl-4-bora-3a,4a-diaza-s-indacene-3-propionylethylenediamide]			pKd (Hsp90α [3]): 7.22
Nc1ncnc2c1nc(Sc1cc3c(cc1I)OCO3)n2CCCCNC(=O)CCCCCNc1ccc([N+](=O)[O-])c2nonc12 [Example 41, 6-(7-nitro-benzo[1,2,5]oxadiazol-4-ylamino)-hexanoic acid {-4-[6-amino-8-(6-iodo-benzol[1,3]dioxol-5-ylsulfanyl)-purin-9-yl]-butyl}-amide]			pKd (Hsp90α [3]): 7.68
CC(C)N(CCCn1c(Cc2cc3c(cc2I)OCO3)nc(C(N)=O)c1N)C(=O)OC(C)(C)C [Example 44, {3-[5-amino-4-carbamoyl-2-(6-iodo-benzol[1,3]dioxol-5-ylmethyl)-imidazol-1-yl]-propyl}-isopropyl-carbamic acid tert-butyl ester]		5.49	pEC50 (MCF-7): 4.73
CCCCn1c(Sc2nc3cccc(Cl)c3s2)nc(C(N)=O)c1N [Example 48, 5-amino-1-butyl-2-(7-chloro-benzothiazol-2-ylsulfanyl)-1H-imidazole-4-carboxamide]	4.48	5.56	pEC50 (MCF-7; Homo sapiens, MCF7): 4.37
CSc1cc2c(cc1Sc1nc(C(N)=O)c(N)n1C)CCO2 [Example 99, 5-amino-2-{[6-(methylthio)-2,3-dihydro-1-benzofuran-5-yl]thio}-methyl-1H-imidazole-4-carboxamide]	4.07	4.89	pEC50 (SKBr3): 4.26
